Type in all cases: cell-based
The test system of one assay is THP1-Dual KO-TREX1 cells. Kind of assay: THP1 TREX1 KO inhibition assay (type 1 interferon response). Conditions: Homo sapiens, 144 h, type 1 interferon (QUANTI-LUC), 1 μM 5-aza-2′-deoxycytidine, six days. On the procedure: Exemplary compounds were tested for their ability to alter the type 1 interferon response in THP1 Dual TREX1 KG cells treated with 5-aza-2′-deoxycytidine. Assay procedures and results are described below.
THP1 Dual TREX1 KG cells were purchased from Invivogen. The THP1-Dual™ KO-TREX1 cells were cultured in RPMI 1640, 10% heat-inactivated fetal bovine serum, 25 mM HEPES, 10 μg/mL blasticidin, and 100 μg/mL zeocin. THP1-Dual™ KO-TREX1 cells were treated with a dose titration of a test compound alone or in the presence of 1 μM 5-aza-2′-deoxycytidine (Sigma-Aldrich, cat #189825). Type 1 Interferon and cell viability were assessed after six days of treatment.
Stock solution of the test compound was prepared in DMSO followed by a three-fold dilution in DMSO. Additional 50× dilution was prepared in cell culture media for each dilution. 10 μL of diluted test compound was then added to a 96-well plate.
THP1-Dual™ KO-TREX1 cells were treated with either 1×PBS or 1 μM 5-aza-2′-deoxycytidine. […] of the THP1-Dual™ KO-TREX1 cells from either treatment were added to each well of the 96-well plate containing the test compound titration at 50,000 cells/well. Cells were incubated at 37° C., 5% CO2 in a humidified incubator for six days. Cells treated with 1 μM 5-aza-2′-deoxycytidine were added at the same density as above and incubated at 37° C., 5% CO2 in a humidified incubator for six days. On day six, 25 μL of cell supernatant was transferred to a 96-well white-walled plate, followed by addition to each well of 50 μL of QUANTI-LUC solution containing stabilizer. Luminescence was detected on a plate reader according to the manufacturer's instructions.
The remaining cells were assessed for cell viability by adding 25 μL of CellTiter-Glo (Promega, G9683) solution to each well, and being placed on a shaker for 10 minutes at room temperature. Luminescence was detected on a plate reader, according to the manufacturer's instructions.
In the tables “A” represents values≤0.050 μM; “B” represents values from >0.050 μM to ≤0.100 μM; “C” represents values from >0.100 μM to ≤0.250 μM; “D” represents values from >0.250 μM to ≤1 μM; “E” represents values>1 μM; and “NT”=not tested: […]

Assay [1] can be described thus: Mitochondria toxicity assay with PC3 cells, in-cell ELISA COX-1. Conditions: 5 days treatment. The method, then:
(§1) Exemplary compounds were tested for inhibition of expression of mitochondria DNA encoded proteins COX-1 […]. SDH-A (succinate dehydrogenase-A) is a control mitochondria protein encoded by nuclear DNA. Reduction in COX-1 expression indicates off target inhibition of mitochondria DNA synthesis which leads to mitochondrial toxicity. Assay procedures and results are described below.
(§2) PC3 cells were purchased from ATCC and cultured in F-12 Kaighn's modified medium (Hyclone), 10% heat-inactivated fetal bovine serum (Invitrogen), 1% Penicillin-Streptomycin (Invitrogen). PC3 cells were treated with a dose titration of a test compound on 96 well plates for 5 days at 37° C., 5% CO2 in a humidified incubator. The treatment plates are duplicated, one for in-cell ELISA for mitochondria proteins and one for cytotoxicity.
(§3) In-cell ELISA was performed to measure mitochondrial proteins using MitoBiogenesis In-Cell ELISA kit (Abcam) per manufacturer's instruction. The medium was aspirated from the compound treated cells, 100 μl per well of 4% paraformaldehyde (Solarbio) was added and cells were incubated at room temperature for 20 minutes. The cells were washed three times with PBS. 100 μl of 0.5% acetic acid was added per cell, and the cells were incubate at room temperature for 5 minutes. Cells were washed once with PBS. 100 μl per well of Permeabilization Buffer was added, and the cells incubate at room temperature for 30 minutes. The permeabilization buffer was removed and 200 μl per well 2× Blocking Buffer was added and the cells were incubated at room temperature for 2 hours. After removing the Blocking Buffer 100 μl per well of primary antibody to SDH-A or COX-1 was added, and the cells were incubated at 4° C. overnight. The primary antibody solution was removed and cells were washed 3 times with the Wash Buffer. 100 μl per well of AP- and HRP-labelled secondary antibodies was added, and the cells were incubated at room temperature for 1 hour. The cells were then washed 4 times with the Wash Buffer. For SDH-A detection, 100 μl per well AP Development Solution was added, and the cells were incubated at room temperature for 10 minutes. Cells were then read on CLARTO star^plus microplate reader (BMG Labtech) for kinetic readings at 405 nm for 5 minutes. […] The cells were then read on CLARTO star^plus microplate reader (BMG Labtech) for kinetic readings at 600 nm for 15 minutes.
(§4) In the table “A” represents values<1.0 μM; “B” represents values from >1.0 μM to ≤10.0 μM; “C” represents values from >10.0 μM to ≤50.0 μM; “D” represents values from >50.0 μM to ≤100.0 μM; and “E” represents values>100.0 μM.
A general note: An ELISA detects its analyte on a solid surface through an enzyme-linked reagent.

Assay [2] deals with SDH-A (succinate dehydrogenase-A). Kind of assay: Mitochondria toxicity assay with PC3 cells, in-cell ELISA SDH-A. Conditions: 5 days treatment. On the procedure: as §1, §2, §3, §4
A further assay has as its system PC3 cells. In words: Mitochondria toxicity assay with PC3 cells, cytotoxicity (Cell Titer Glo). The conditions noted are these: Homo sapiens, PC-3, 120 h, 5 days treatment. On the procedure:
as §2
For the cytotoxicity assay, the medium from the cell viability plate was removed, 50 μL per well of Cell Titer Glo (Promega, G9683) was added. Then the cells incubated for 30 minutes at room temperature. Luminescence was read by Envision (PerkinElmer 2105).
as §4
For orientation: In ATP-based viability assays light output follows the ATP content of the culture.

Where only a bound is given, the exact number is not on record here.

The term IC50 denotes the point on the concentration scale where inhibition reaches its midpoint. A higher IC50 goes with weaker potency.

On to `C#C[C@]1(CO)O[C@@H](n2cc(C)c(=O)[nH]c2=O)[C@@H](F)[C@@H]1O` [Compound 39, 1-((2R,3S,4R,5R)-5-ethynyl-3-fluoro-4-hydroxy-5-(hydroxymethyl)tetrahydrofuran-2-yl)-5-methylpyrimidine-2,4(1H,3H)-dione], for which the IC50 in the assay on THP1-Dual KO-TREX1 cells is above 1 µM; in assay [1], above 100 µM; in assay [2], above 100 µM; in the assay with PC3 cells, above 100 µM.

On to `C=C[C@]1(CO)O[C@@H](n2cnc3c(=O)[nH]c(N)nc32)[C@@H](F)[C@@H]1O` [Compound 63, 2-amino-9-[(2R,3S,4R,5R)-5-ethenyl-3-fluoro-4-hydroxy-5-(hydroxymethyl)oxolan-2-yl]-1H-purin-6-one], for which the IC50 with THP1-Dual KO-TREX1 cells was above 1 µM; in assay [1] it was 10 to 50 µM; in assay [2], 10 to 50 µM; in the assay on PC3 cells it was 10 to 50 µM.

In the case of `Cc1cn([C@@H]2O[C@@](CO)(CCl)[C@@H](O)[C@@H]2F)c(=O)[nH]c1=O` [Compound 176], the IC50 in the assay on THP1-Dual KO-TREX1 cells is above 1 µM; in assay [1], above 100 µM; in assay [2], above 100 µM; in the assay on PC3 cells it was above 100 µM.

`Nc1ccn([C@@H]2O[C@@](CO)(CCl)[C@@H](O)C2(F)F)c(=O)n1` [Compound 119, 4-amino-1-((2R,4R,5R)-5-(chloromethyl)-3,3-difluoro-4-hydroxy-5-(hydroxymethyl)tetrahydrofuran-2-yl)pyrimidin-2(1H)-one]: the IC50 in the assay with THP1-Dual KO-TREX1 cells is above 1 µM; in assay [1], 1 to 10 µM; in assay [2] it was 1 to 10 µM; with PC3 cells, 1 to 10 µM.

In the assay on THP1-Dual KO-TREX1 cells, `O=c1nc(NO)ccn1[C@@H]1O[C@@](CO)(CCl)[C@@H](O)[C@H]1F` [Compound 28, 1-((2R,3R,4R,5R)-5-(chloromethyl)-3-fluoro-4-hydroxy-5-(hydroxymethyl)tetrahydrofuran-2-yl)-4-(hydroxyamino)pyrimidin-2(1H)-one] came in with an IC50 above 1 µM.

For the compound `C#C[C@]1(CO)O[C@@H](n2ccc(N)nc2=O)[C@@H](F)[C@@H]1O` [Compound 35, 4-amino-1-((2R,3S,4R,5R)-5-ethynyl-3-fluoro-4-hydroxy-5-(hydroxymethyl)tetrahydrofuran-2-yl)pyrimidin-2(1H)-one], the IC50 is 0.25 to 1 µM in the assay with THP1-Dual KO-TREX1 cells, below 1 µM in assay [1], above 100 µM in assay [2] and below 1 µM with PC3 cells.

Take `Nc1nc(=O)n([C@@H]2O[C@](/C=C/Cl)(CO)[C@@H](O)[C@@H]2F)cc1F` [Compound 131, 4-amino-1-[(2R,3S,4R,5R)-5(E)-(2-chloroethenyl)-3-fluoro-4-hydroxy-5-(hydroxymethyl)oxolan-2-yl]-5-fluoropyrimidin-2-one]: the IC50 with THP1-Dual KO-TREX1 cells was above 1 µM; in assay [1], above 100 µM; in assay [2] it was above 100 µM; with PC3 cells it was above 100 µM.

Turning to `C#C[C@]1(CO)O[C@@H](n2cnc3c(N)nc(Cl)nc32)[C@@H](F)[C@@H]1O` [Compound 5, (2R,3R,4S,5R)-5-(6-amino-2-chloro-9H-purin-9-yl)-2-ethynyl-4-fluoro-2-(hydroxymethyl)tetrahydrofuran-3-ol], the IC50 is above 1 µM in the assay with THP1-Dual KO-TREX1 cells, 10 to 50 µM in assay [1], above 100 µM in assay [2] and above 100 µM in the assay on PC3 cells.

Regarding `CC[C@]1(CO)O[C@@H](n2cnc3c(N)nc(F)nc32)C[C@@H]1O` [Compound 64, (2R,3S,5R)-5-(6-amino-2-fluoro-9H-purin-9-yl)-2-ethyl-2-(hydroxymethyl)tetrahydrofuran-3-ol], the IC50 is above 1 µM in the assay with THP1-Dual KO-TREX1 cells, below 1 µM in assay [1], below 1 µM in assay [2] and below 1 µM in the assay on PC3 cells.

Consider `Nc1cnn([C@H]2C[C@H](O)[C@](CO)(CCl)O2)c(=O)n1` [Compound 18, 5-amino-2-((2R,4S,5R)-5-(chloromethyl)-4-hydroxy-5-(hydroxymethyl)tetrahydrofuran-2-yl)-1,2,4-triazin-3(2H)-one], for which the IC50 in the assay on THP1-Dual KO-TREX1 cells was above 1 µM.

In the assay on THP1-Dual KO-TREX1 cells, `C#C[C@]1(CO)O[C@@H](n2ccc(N)nc2=O)C[C@@H]1O` [Compound 41, 4-amino-1-((2R,4S,5R)-5-ethynyl-4-hydroxy-5-(hydroxymethyl)tetrahydro-furan-2-yl)pyrimidin-2(1H)-one] showed an IC50 above 1 µM.

Compound `CC#C[C@]1(CO)O[C@@H](n2cnc3c(N)nc(F)nc32)C[C@@H]1O` [Compound 1, (2R,3S,5R)-5-(6-amino-2-fluoro-9H-purin-9-yl)-2-(hydroxymethyl)-2-(prop-1-yn-1-yl)tetrahydrofuran-3-ol] had an IC50 in the assay with THP1-Dual KO-TREX1 cells above 1 µM.

Take `C#C[C@]1(CO)O[C@@H](n2ccc(N)nc2=O)[C@H](F)[C@@H]1O` [Compound 32, 4-amino-1-((2R,3R,4R,5R)-5-ethynyl-3-fluoro-4-hydroxy-5-(hydroxymethyl)tetrahydrofuran-2-yl)pyrimidin-2(1H)-one]: the IC50 with THP1-Dual KO-TREX1 cells was above 1 µM.

For the compound `O=c1ccn([C@@H]2O[C@@](CO)(CCl)[C@@H](O)[C@H]2F)c(=O)[nH]1` [Compound 29, 1-((2R,3R,4R,5R)-5-(chloromethyl)-3-fluoro-4-hydroxy-5-(hydroxymethyl)tetrahydrofuran-2-yl)pyrimidine-2,4(1H,3H)-dione], the IC50 with THP1-Dual KO-TREX1 cells is above 1 µM.

Turning to `O=c1ccn([C@H]2C[C@H](O)[C@](CO)(CCl)O2)c(=O)[nH]1` [Compound 34, 1-((2R,4S,5R)-5-(chloromethyl)-4-hydroxy-5-(hydroxymethyl)tetrahydro-furan-2-yl)pyrimidine-2,4(1H,3H)-dione], in the assay on THP1-Dual KO-TREX1 cells, the IC50 was above 1 µM.

With `O=c1nc(NO)ccn1[C@H]1C[C@H](O)[C@](CO)(CCl)O1` [Compound 6, 1-((2R,4S,5R)-5-(chloromethyl)-4-hydroxy-5-(hydroxymethyl)tetrahydrofuran-2-yl)-4-(hydroxyamino)pyrimidin-2(1H)-one], the IC50 in the assay on THP1-Dual KO-TREX1 cells is above 1 µM.

For `C#C[C@@H]1[C@H](n2ccc(N)nc2=O)O[C@](C)(CO)[C@H]1O` [Compound 20, 4-amino-1-((2R,3S,4S,5R)-3-ethynyl-4-hydroxy-5-(hydroxymethyl)-5-methyltetrahydrofuran-2-yl)pyrimidin-2(1H)-one], the IC50 with THP1-Dual KO-TREX1 cells is above 1 µM.

Regarding `C#C[C@]1(CO)O[C@@H](n2ccc(=O)[nH]c2=O)[C@H](F)[C@@H]1O` [Compound 33, 1-((2R,3R,4R,5R)-5-ethynyl-3-fluoro-4-hydroxy-5-(hydroxymethyl)tetrahydro-furan-2-yl)pyrimidine-2,4(1H,3H)-dione], the IC50 in the assay with THP1-Dual KO-TREX1 cells was above 1 µM.

In the case of `C#C[C@@H]1[C@H](n2ccc(N)nc2=O)O[C@@](CO)(CCl)[C@H]1O` [Compound 17, 4-amino-1-((2R,3S,4S,5R)-5-(chloromethyl)-3-ethynyl-4-hydroxy-5-(hydroxymethyl)tetrahydrofuran-2-yl)pyrimidin-2(1H)-one], in the assay with THP1-Dual KO-TREX1 cells, the IC50 is above 1 µM.

(Values after US12187758B2 (ROME Therapeutics, Inc., priority 2022, dated 2025).)
